pIC50: −log10 of the molar value. Read-outs that look alike come from different tables or passages of the source.

Format in all cases: biochemical
The target in assay [1] is T1, PDE1A (Homo sapiens, UniProt P54750).
T1 construct: purchased Reaction Biology Corporation, Malvern, Pa
The experiment in a line: Phosphodiesterase enzyme screening assay, PDE1A. The gist of the method:
(§1)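 Enzyme activity is measured as conversion of fluorescent cGMP (4.0 μM) to 5′-GMP after 1 h at R.T. in pH 7.5 HEPES/MgCl2/DTT buffer. Product is separated from substrate by microfluidic mobility shift, and inhibition is derived by comparison with control wells.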

For assay [2], the target named is T2, PDE1B (Homo sapiens, UniProt Q01064).
T2 construct: purchased Reaction Biology Corporation, Malvern, Pa
The assay is described as follows: Phosphodiesterase enzyme screening assay, PDE1B. The gist of the method: as §1

Assay [3] concerns the target T3, PDE9A2 (Homo sapiens, UniProt O76083).
T3 construct: purchased Reaction Biology Corporation, Malvern, Pa
The assay is described as follows: Phosphodiesterase enzyme screening assay, PDE9A2. The essentials: as §1

Setting [4] is: ratio of IC50 values PDE1A / PDE9A2, value greater than 1 = greater selectivity for PDE9A2.
The mark [5] stands for this setting: ratio of IC50 values PDE1B / PDE9A2, value greater than 1 = greater selectivity for PDE9A2.
Where [6] appears, read: 4.0 μM cGMP substrate, 1 hour at R.T., read-out: Band (PDE9A2 IC50).
Setting [7] is: Table 1, ratio of IC50 values, value greater than 1 indicates greater selectivity for PDE9A2.
Setting [8] is: Table 1, 10 concentrations, 4.0 μM cGMP substrate, 1 hour at R.T., read-out: Band (PDE9A2 IC50).
The mark [9] stands for this setting: ratio of IC50 values, PDE1A versus PDE9A2, value greater than 1 indicates greater selectivity for PDE9A2.
The mark [10] stands for this setting: ratio of IC50 values, PDE1B versus PDE9A2, value greater than 1 indicates greater selectivity for PDE9A2.

T1 sequence (P54750 whole entry): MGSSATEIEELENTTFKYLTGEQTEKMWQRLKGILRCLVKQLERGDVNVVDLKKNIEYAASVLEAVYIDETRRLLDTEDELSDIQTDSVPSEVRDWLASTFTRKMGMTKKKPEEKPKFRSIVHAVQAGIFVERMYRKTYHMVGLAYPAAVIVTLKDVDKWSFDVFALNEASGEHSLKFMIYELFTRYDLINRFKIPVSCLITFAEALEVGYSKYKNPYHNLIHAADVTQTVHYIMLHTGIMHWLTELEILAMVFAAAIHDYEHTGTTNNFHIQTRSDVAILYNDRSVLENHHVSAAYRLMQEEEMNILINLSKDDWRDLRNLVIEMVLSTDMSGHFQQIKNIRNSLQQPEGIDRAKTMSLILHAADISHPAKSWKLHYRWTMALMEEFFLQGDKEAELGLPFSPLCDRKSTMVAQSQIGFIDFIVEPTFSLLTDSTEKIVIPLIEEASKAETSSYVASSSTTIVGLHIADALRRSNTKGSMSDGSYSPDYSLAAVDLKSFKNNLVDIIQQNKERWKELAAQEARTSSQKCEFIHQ
T2 sequence (Q01064 whole entry): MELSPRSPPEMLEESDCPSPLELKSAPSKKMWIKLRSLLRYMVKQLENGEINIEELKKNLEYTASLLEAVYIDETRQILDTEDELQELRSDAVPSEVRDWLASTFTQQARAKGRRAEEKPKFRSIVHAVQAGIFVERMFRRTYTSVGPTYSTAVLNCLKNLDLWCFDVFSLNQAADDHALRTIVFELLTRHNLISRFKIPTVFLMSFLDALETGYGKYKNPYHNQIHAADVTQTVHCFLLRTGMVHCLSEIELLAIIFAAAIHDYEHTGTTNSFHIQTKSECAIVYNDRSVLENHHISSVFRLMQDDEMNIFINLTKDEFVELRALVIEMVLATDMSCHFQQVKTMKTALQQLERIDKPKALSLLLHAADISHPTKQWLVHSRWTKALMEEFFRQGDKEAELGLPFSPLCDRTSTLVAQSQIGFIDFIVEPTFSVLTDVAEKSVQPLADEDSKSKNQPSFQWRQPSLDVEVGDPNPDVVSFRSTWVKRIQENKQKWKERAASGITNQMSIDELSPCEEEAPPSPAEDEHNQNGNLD
T3 sequence (O76083 1-533 isoform O76083-2): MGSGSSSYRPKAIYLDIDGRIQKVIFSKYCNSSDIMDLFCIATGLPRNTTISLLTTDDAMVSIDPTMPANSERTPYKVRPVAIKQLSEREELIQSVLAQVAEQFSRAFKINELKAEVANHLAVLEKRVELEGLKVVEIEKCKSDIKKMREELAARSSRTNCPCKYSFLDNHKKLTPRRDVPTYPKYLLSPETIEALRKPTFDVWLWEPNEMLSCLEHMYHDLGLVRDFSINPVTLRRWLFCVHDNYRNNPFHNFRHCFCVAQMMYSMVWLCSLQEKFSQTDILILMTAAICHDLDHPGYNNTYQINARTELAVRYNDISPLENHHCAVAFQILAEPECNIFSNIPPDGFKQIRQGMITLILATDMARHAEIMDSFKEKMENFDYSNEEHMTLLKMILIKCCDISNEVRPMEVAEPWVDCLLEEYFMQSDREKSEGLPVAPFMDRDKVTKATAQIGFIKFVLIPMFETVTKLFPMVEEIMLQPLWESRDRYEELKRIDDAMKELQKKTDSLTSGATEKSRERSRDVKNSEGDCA

For orientation: pIC50 means the negative decadic logarithm of the IC50, by convention in mol/L. For the molecule `CC1CN(Cc2ccc(F)c(Cl)c2)CC1c1nn2c(C3CCOCC3)ncc2c(=O)[nH]1` (single isomer, unassigned; (+)) [(+)-2-((3,4-trans)-1-(3-chloro-4-fluorobenzyl)-4-methylpyrrolidin-3-yl)-7-(tetrahydro-2H-pyran-4-yl)imidazo[5,1-f][1,2,4]triazin-4(3H)-one], the “PDE1A selectivity (versus PDE9A2)” value in assay [1] (setting [4]) amounted to 604. Besides, in assay [2] (setting [5]), the “PDE1B selectivity (versus PDE9A2)” value came to 430. Moreover, the negative-log IC50 (pIC50) in assay [3] (setting [6]) is more than 6.00.
In the case of `CC1CN(Cc2cc(Cl)cc(C(F)(F)F)c2)CC1c1nn2c(C3CCOCC3)ncc2c(=O)[nH]1` (single isomer, unassigned; (+)) [(+)-2-((3,4-trans)-1-(3-chloro-5-(trifluoromethyl)benzyl)-4-methylpyrrolidin-3-yl)-7-(tetrahydro-2H-pyran-4-yl)imidazo[5,1-f][1,2,4]triazin-4(3H)-one], the “PDE1A selectivity (versus PDE9A2)” value in assay [1] (setting [4]) turned out to be 236. Also, the “PDE1B selectivity (versus PDE9A2)” value in assay [2] (setting [5]) amounted to 105. In addition, the pIC50 in assay [3] (setting [6]) is more than 6.00.
Take `CC1CN(Cc2cccc(Cl)c2)CC1c1nn2c(C3CCOCC3)ncc2c(=O)[nH]1` (single isomer, unassigned; (+)) [(+)-2-((3,4-trans)-1-(3-chlorobenzyl)-4-methylpyrrolidin-3-yl)-7-(tetrahydro-2H-pyran-4-yl)imidazo[5,1-f][1,2,4]triazin-4(3H)-one]: in assay [1] (setting [7]), the “PDE1A selectivity (versus PDE9A2)” value came to 470. In assay [2] (setting [7]), the “PDE1B selectivity (versus PDE9A2)” value worked out at 331. For the same molecule, in assay [3] (setting [8]), the negative-log IC50 (pIC50) is more than 6.00.
Turning to `CC1CN(Cc2cccc(C3CC3)c2)CC1c1nn2c(C3CCOCC3)ncc2c(=O)[nH]1` (single isomer, unassigned; (+)) [(+)-2-((3,4-trans)-1-(3-cyclopropylbenzyl)-4-methylpyrrolidin-3-yl)-7-(tetrahydro-2H-pyran-4-yl)imidazo[5,1-f][1,2,4]triazin-4(3H)-one], the “PDE1A selectivity (versus PDE9A2)” value in assay [1] (setting [7]) is reported as 703. Further, the “PDE1B selectivity (versus PDE9A2)” value in assay [2] (setting [7]) is on record as 903. For the same molecule, in assay [3] (setting [8]), the negative logarithm of the IC50 (pIC50) was more than 6.00.
Regarding `COc1cccc(CN2CC(C)C(c3nn4c(C5CCOCC5)ncc4c(=O)[nH]3)C2)c1` (single isomer, unassigned; (+)) [(+)-2-((3,4-trans)-1-(3-methoxybenzyl)-4-methylpyrrolidin-3-yl)-7-(tetrahydro-2H-pyran-4-yl)imidazo[5,1-f][1,2,4]triazin-4(3H)-one], the “PDE1A selectivity (versus PDE9A2)” value in assay [1] (setting [7]) was found to be 1347. In addition, the “PDE1B selectivity (versus PDE9A2)” value in assay [2] (setting [7]) is given as 477. The pIC50 in assay [3] (setting [8]) is more than 6.00.
`CC1CN(Cc2ccc(Br)cc2)CC1c1nn2c(C3CCOCC3)ncc2c(=O)[nH]1` (single isomer, unassigned; (+)) [(+)-2-((3,4-trans)-1-(4-bromobenzyl)-4-methylpyrrolidin-3-yl)-7-(tetrahydro-2H-pyran-4-yl)imidazo[5,1-f][1,2,4]triazin-4(3H)-one]: in assay [1] (setting [7]), the “PDE1A selectivity (versus PDE9A2)” value was 476. In assay [2] (setting [7]), the “PDE1B selectivity (versus PDE9A2)” value is reported as 1105. The pIC50 in assay [3] (setting [8]) is more than 6.00.
In the case of `CC1CN(Cc2ccc(Cl)c(C(F)(F)F)c2)CC1c1nn2c(C3CCOCC3)ncc2c(=O)[nH]1` (single isomer, unassigned; (+)) [(+)-2-((3,4-trans)-1-(4-chloro-3-(trifluoromethyl)benzyl)-4-methylpyrrolidin-3-yl)-7-(tetrahydro-2H-pyran-4-yl)imidazo[5,1-f][1,2,4]triazin-4(3H)-one], in assay [1] (setting [4]), the “PDE1A selectivity (versus PDE9A2)” value was 196. Besides, in assay [2] (setting [5]), the “PDE1B selectivity (versus PDE9A2)” value was 406. Besides, the pIC50 in assay [3] (setting [6]) was more than 6.00.
With `CC1CN(Cc2ccc(Cl)c(F)c2)CC1c1nn2c(C3CCOCC3)ncc2c(=O)[nH]1` (single isomer, unassigned; (+)) [(+)-2-((3,4-trans)-1-(4-chloro-3-fluorobenzyl)-4-methylpyrrolidin-3-yl)-7-(tetrahydro-2H-pyran-4-yl)imidazo[5,1-f][1,2,4]triazin-4(3H)-one], the “PDE1A selectivity (versus PDE9A2)” value in assay [1] (setting [7]) amounted to 3575. In addition, the “PDE1B selectivity (versus PDE9A2)” value in assay [2] (setting [7]) was 6575. Moreover, in assay [3] (setting [8]), the pIC50 is more than 6.00.
In the case of `Cc1cc(CN2CC(C)C(c3nn4c(C5CCOCC5)ncc4c(=O)[nH]3)C2)ccc1Cl` (single isomer, unassigned; (+)) [(+)-2-((3,4-trans)-1-(4-chloro-3-methylbenzyl)-4-methylpyrrolidin-3-yl)-7-(tetrahydro-2H-pyran-4-yl)imidazo[5,1-f][1,2,4]triazin-4(3H)-one], the “PDE1A selectivity (versus PDE9A2)” value in assay [1] (setting [4]) was found to be 466. In assay [2] (setting [5]), the “PDE1B selectivity (versus PDE9A2)” value is 818. Also, in assay [3] (setting [6]), the pIC50 is more than 6.00.
In the case of `CC1CN(Cc2ccc(Cl)cc2)CC1c1nn2c(C3CCC(F)(F)CC3)ncc2c(=O)[nH]1` (single isomer, unassigned; (+)) [(+)-2-((3,4-trans)-1-(4-chlorobenzyl)-4-methylpyrrolidin-3-yl)-7-(4,4-difluorocyclohexyl)imidazo[5,1-f][1,2,4]triazin-4(3H)-one], the “PDE1A selectivity (versus PDE9A2)” value in assay [1] (setting [7]) was 595. Besides, the “PDE1B selectivity (versus PDE9A2)” value in assay [2] (setting [7]) came out at 1210. Also, in assay [3] (setting [8]), the pIC50 is more than 6.00.
As for `Cc1cc(F)ccc1-c1ncc2c(=O)[nH]c(C3CN(Cc4ccc(Cl)cc4)CC3C)nn12` (single isomer, unassigned; (+)) [(+)-2-((3,4-trans)-1-(4-chlorobenzyl)-4-methylpyrrolidin-3-yl)-7-(4-fluoro-2-methylphenyl)imidazo[5,1-f][1,2,4]triazin-4(3H)-one], the “PDE1A selectivity (versus PDE9A2)” value in assay [1] (ratio of IC50 values PDE1A vs PDE9A2, value greater than 1 indicates greater selectivity for PDE9A2) was found to be 468. In addition, the “PDE1B selectivity (versus PDE9A2)” value in assay [2] (ratio of IC50 values PDE1B vs PDE9A2, value greater than 1 indicates greater selectivity for PDE9A2) is reported as 1106. Also, the negative logarithm of the IC50 (pIC50) in assay [3] (IC50 band, 4.0 μM cGMP substrate, 1 hour at R.T.) is more than 6.00.
`Cc1ccccc1-c1ncc2c(=O)[nH]c(C3CN(Cc4ccc(Cl)cc4)CC3C)nn12` (single isomer, unassigned; (+)) [(+)-2-((3,4-trans)-1-(4-chlorobenzyl)-4-methylpyrrolidin-3-yl)-7-(o-tolyl)imidazo[5,1-f][1,2,4]triazin-4(3H)-one]: in assay [1] (setting [9]), the “PDE1A selectivity (versus PDE9A2)” value is listed as 55. The “PDE1B selectivity (versus PDE9A2)” value in assay [2] (setting [10]) was 109. Further, the pIC50 in assay [3] (read-out: Band (PDE9A2 IC50)) was more than 6.00.
As for `CC1CN(Cc2ccc(C3CC3)cc2)CC1c1nn2c(C3CCOCC3)ncc2c(=O)[nH]1` (single isomer, unassigned; (+)) [(+)-2-((3,4-trans)-1-(4-cyclopropylbenzyl)-4-methylpyrrolidin-3-yl)-7-(tetrahydro-2H-pyran-4-yl)imidazo[5,1-f][1,2,4]triazin-4(3H)-one], in assay [1] (setting [7]), the “PDE1A selectivity (versus PDE9A2)” value was 260. The “PDE1B selectivity (versus PDE9A2)” value in assay [2] (setting [7]) worked out at 605. The pIC50 in assay [3] (setting [8]) was more than 6.00.
For `CC1CN(Cc2ccc(F)c(C(F)(F)F)c2)CC1c1nn2c(C3CCOCC3)ncc2c(=O)[nH]1` (single isomer, unassigned; (+)) [(+)-2-((3,4-trans)-1-(4-fluoro-3-(trifluoromethyl)benzyl)-4-methylpyrrolidin-3-yl)-7-(tetrahydro-2H-pyran-4-yl)imidazo[5,1-f][1,2,4]triazin-4(3H)-one], in that order: 1687, 1097 and more than 6.00.
Consider `CC1CN(Cc2ccc(F)cc2)CC1c1nn2c(-c3ccccc3F)ncc2c(=O)[nH]1` (single isomer, unassigned; (+)) [(+)-2-((3,4-trans)-1-(4-fluorobenzyl)-4-methylpyrrolidin-3-yl)-7-(2-fluorophenyl)imidazo[5,1-f][1,2,4]triazin-4(3H)-one], for which the “PDE1A selectivity (versus PDE9A2)” value in assay [1] (ratio of IC50 values PDE1A / PDE9A2, value greater than 1 indicates greater selectivity for PDE9A2) worked out at 62. In assay [2] (ratio of IC50 values PDE1B / PDE9A2, value greater than 1 indicates greater selectivity for PDE9A2), the “PDE1B selectivity (versus PDE9A2)” value was determined as 165. Further, in assay [3] (setting [6]), the pIC50 was more than 6.00.
As to `CC1CN(Cc2ccc(F)cc2)CC1c1nn2c(-c3cccc(F)c3)ncc2c(=O)[nH]1` (single isomer, unassigned; (+)) [(+)-2-((3,4-trans)-1-(4-fluorobenzyl)-4-methylpyrrolidin-3-yl)-7-(3-fluorophenyl)imidazo[5,1-f][1,2,4]triazin-4(3H)-one], in assay [1] (setting [9]), the “PDE1A selectivity (versus PDE9A2)” value is given as 42. The “PDE1B selectivity (versus PDE9A2)” value in assay [2] (setting [10]) came to 57. The negative-log IC50 (pIC50) in assay [3] (read-out: Band (PDE9A2 IC50)) is more than 6.00.
For `Cc1ccccc1-c1ncc2c(=O)[nH]c(C3CN(Cc4ccc(F)cc4)CC3C)nn12` (single isomer, unassigned; (+)) [(+)-2-((3,4-trans)-1-(4-fluorobenzyl)-4-methylpyrrolidin-3-yl)-7-(o-tolyl)imidazo[5,1-f][1,2,4]triazin-4(3H)-one], in that order: 963, 744 and more than 6.00.
For `CCC(CC)c1ncc2c(=O)[nH]c(C3CN(Cc4ccc(F)cc4)CC3C)nn12` (single isomer, unassigned; (+)) [(+)-2-((3,4-trans)-1-(4-fluorobenzyl)-4-methylpyrrolidin-3-yl)-7-(pentan-3-yl)imidazo[5,1-f][1,2,4]triazin-4(3H)-one], in that order: 70, 27 and more than 6.00.

The record behind these values is patent publication US9969742B2, “Imidazotriazinone compounds” (Ironwood Pharmaceuticals, Inc., priority 2012, dated 2018).
